# Results: ChEMBL document CHEMBL5442379, “ASAP - SARS-CoV-2 nsp3 macrodomain single point” (2024)
# Molecular target: Replicase polyprotein 1ab (Severe acute respiratory syndrome coronavirus 2) (UniProt P0DTD1)
# [1] = Concentration 50.0 uM, Number of replicates 2.0, Standard deviation 0.892 %
# Description: Functional biochemical assay to identify treatments for viral infectious disease that targets SARS-COV-2 nsp3 macrodomain, whereby the mechanism of action displaces an ADP-Ribose modified peptide from the binding site. Utilizing a time-resolved fluorescence method to measure binding by reading the emitted fluorescence intensity in two wavelengths.
smiles,measurement,setting,value
COc1ccccc1CN(C[C@@H]1CCCO1)c1ncnc2[nH]ccc12,inhibition,"Concentration 50.0 uM, Number of replicates 2.0, Standard deviation 1.448 %",4.74%
Cc1cc(NCc2cnc3c(c2)NC(=O)CO3)cnc1C,inhibition,"Concentration 50.0 uM, Number of replicates 2.0, Standard deviation 8.489 %",4.53%
O=C(N[C@H](Cn1cnc2cc(F)c(F)cc21)C(=O)O)c1ncnc2[nH]ccc12,inhibition,"Concentration 49.75 uM, Number of replicates 2.0, Standard deviation 5.178 %",-2.04%
same,inhibition,"Concentration 99.5 uM, Number of replicates 2.0, Standard deviation 0.435 %",8.39%
Oc1ccccc1CNc1ncnc2[nH]cnc12,inhibition,[1],1.9%
O=S(=O)(NC[C@@H]1CCCCO1)c1cn2c(n1)CCCC2,inhibition,[1],-5.39%
O=C(CCN(Cc1cccc(Cl)c1)C(=O)c1ccccc1F)N1CCNCC1,inhibition,"Concentration 49.75 uM, Number of replicates 2.0, Standard deviation 0.399 %",-0.625%
same,inhibition,"Concentration 99.5 uM, Number of replicates 2.0, Standard deviation 0.282 %",0.395%
Cc1nn(-c2ccccc2)c(C)c1[C@H]1COCCN1c1ncnc2[nH]ccc12,inhibition,"Concentration 49.75 uM, Number of replicates 2.0, Standard deviation 1.442 %",-0.042%
same,inhibition,"Concentration 99.5 uM, Number of replicates 2.0, Standard deviation 1.631 %",-4.22%
O=C(Nc1cnc2[nH]ncc2c1)C1CCN(c2ccc3nncn3n2)CC1,inhibition,"Concentration 50.0 uM, Number of replicates 2.0, Standard deviation 15.88 %",17%
O=C(c1cccnc1O)N1CCC(c2ccn3ncc(C(=O)N4CCCCC4)c3c2)CC1,inhibition,"Concentration 49.75 uM, Number of replicates 2.0, Standard deviation 3.415 %",-7.04%
same,inhibition,"Concentration 99.5 uM, Number of replicates 2.0, Standard deviation 3.017 %",-3.94%
CN(c1ncnc2[nH]ncc12)[C@@H](CCO)c1ccccc1,inhibition,"Concentration 49.75 uM, Number of replicates 2.0, Standard deviation 10.225 %",8.86%
same,inhibition,"Concentration 99.5 uM, Number of replicates 2.0, Standard deviation 3.705 %",5.14%
Cc1ccnc(C2CCN(c3ncnc4[nH]ccc34)CC2)n1,inhibition,"Concentration 50.0 uM, Number of replicates 2.0, Standard deviation 3.755 %",3.46%
Cc1nc(C(=O)N2CCC(c3ccn4ncc(C(=O)N5CCCCC5)c4c3)CC2)c(=O)[nH]c1C,inhibition,"Concentration 49.75 uM, Number of replicates 2.0, Standard deviation 2.437 %",26.4%
same,inhibition,"Concentration 99.5 uM, Number of replicates 2.0, Standard deviation 0.005 %",44.2%
CC(C)[C@@H](Nc1ncnc2[nH]ccc12)C(N)=O,inhibition,"Concentration 49.75 uM, Number of replicates 2.0, Standard deviation 3.584 %",64.4%
same,inhibition,"Concentration 99.5 uM, Number of replicates 2.0, Standard deviation 5.819 %",77.7%
O=C(NCc1nc(-c2ccco2)n[nH]1)c1cc2nccn2c(=O)[nH]1,inhibition,"Concentration 50.0 uM, Number of replicates 2.0, Standard deviation 0.515 %",-5.42%
Cc1[nH]c2ncnc(NC(=O)[C@@H]3CCO[C@@H]3C)c2c1C,inhibition,"Concentration 50.0 uM, Number of replicates 2.0, Standard deviation 0.696 %",35.1%
COc1ccccc1C[C@@H](Nc1ncnc2[nH]ccc12)C(C)C,inhibition,"Concentration 49.75 uM, Number of replicates 2.0, Standard deviation 1.888 %",31.7%
same,inhibition,"Concentration 99.5 uM, Number of replicates 2.0, Standard deviation 1.108 %",48.5%
CN(Cc1cn(C)nn1)C(=O)c1cnn2ccc(C3CCN(C(=O)c4ccccc4)CC3)cc12,inhibition,"Concentration 49.75 uM, Number of replicates 2.0, Standard deviation 4.768 %",2.17%
same,inhibition,"Concentration 99.5 uM, Number of replicates 2.0, Standard deviation 1.859 %",1.34%
O=C(NCc1ccc(Cl)cn1)c1ncnc2[nH]ccc12,inhibition,"Concentration 50.0 uM, Number of replicates 2.0, Standard deviation 1.293 %",-4.96%
same,inhibition,"Concentration 100.0 uM, Number of replicates 2.0, Standard deviation 0.093 %",-2.57%
c1ccc(-c2n[nH]cc2CNc2cnc3[nH]ncc3c2)cc1,inhibition,"Concentration 50.0 uM, Number of replicates 2.0, Standard deviation 1.159 %",-2.04%
CS(=O)(=O)N1CC[C@@H](COC(=O)c2ncnc3[nH]ccc23)C1,inhibition,"Concentration 50.0 uM, Number of replicates 2.0, Standard deviation 2.196 %",0.187%
C=CCn1c(Sc2ncnc3[nH]ccc23)nc2sccc2c1=O,inhibition,"Concentration 50.0 uM, Number of replicates 2.0, Standard deviation 0.219 %",6.3%
CC(C)[C@@H](CCN(C)C(=O)C1CCc2ccccc2CC1)Nc1ncnc2[nH]ccc12,inhibition,"Concentration 49.75 uM, Number of replicates 2.0, Standard deviation 5.252 %",-5.62%
CCN(Cc1nnc(C)o1)C(=O)c1cnn2ccc(C3CCN(C(=O)c4ccccc4)CC3)cc12,inhibition,"Concentration 49.75 uM, Number of replicates 2.0, Standard deviation 14.085 %",10%
same,inhibition,"Concentration 99.5 uM, Number of replicates 2.0, Standard deviation 1.269 %",-5.31%
O=C(CCN(Cc1cccc(Cl)c1)C(=O)[C@@H]1C[C@@H](O)CN1)N1CCNCC1,inhibition,"Concentration 49.75 uM, Number of replicates 2.0, Standard deviation 1.654 %",-3.54%
same,inhibition,"Concentration 99.5 uM, Number of replicates 2.0, Standard deviation 6.509 %",4.74%
O=C(c1nc(=O)[nH][nH]1)N1CCC(c2ccn3ncc(C(=O)N4CCCCC4)c3c2)CC1,inhibition,"Concentration 49.75 uM, Number of replicates 2.0, Standard deviation 0.837 %",23.4%
same,inhibition,"Concentration 99.5 uM, Number of replicates 2.0, Standard deviation 3.14 %",34.6%
O=C(NC[C@@H]1CCCCN1)c1cnn2ccc(C3CCN(C(=O)c4ccccc4)CC3)cc12,inhibition,"Concentration 49.75 uM, Number of replicates 2.0, Standard deviation 3.98 %",-5.92%
same,inhibition,"Concentration 99.5 uM, Number of replicates 2.0, Standard deviation 0.917 %",-2.57%
Cc1cc(C(F)(F)F)nn1CCNc1ncnc2[nH]ccc12,inhibition,"Concentration 50.0 uM, Number of replicates 2.0, Standard deviation 3.563 %",-3.04%
same,inhibition,"Concentration 50.0 uM, Number of replicates 2.0, Standard deviation 6.31 %",4.6%
same,inhibition,"Concentration 100.0 uM, Number of replicates 2.0, Standard deviation 1.334 %",-2.21%
c1coc(CNc2ncnc3[nH]cnc23)c1,inhibition,"Concentration 50.0 uM, Number of replicates 2.0, Standard deviation 0.16 %",2.63%
Cc1nc(NC(=O)c2nccc3ccncc23)c2cc[nH]c2n1,inhibition,"Concentration 50.0 uM, Number of replicates 2.0, Standard deviation 2.951 %",-5.83%
same,inhibition,"Concentration 100.0 uM, Number of replicates 2.0, Standard deviation 4.025 %",2.61%
C[C@@H]1[C@H](O)CCCN1C(=O)c1ccc(NC(=O)Nc2ccccc2)cc1,inhibition,"Concentration 49.75 uM, Number of replicates 2.0, Standard deviation 0.457 %",-2.96%
same,inhibition,"Concentration 99.5 uM, Number of replicates 2.0, Standard deviation 5.068 %",-2.72%
Cc1[nH]c2ncnc(NC(=O)C3CCC(F)(F)CC3)c2c1C,inhibition,"Concentration 50.0 uM, Number of replicates 2.0, Standard deviation 0.519 %",2.15%
Cn1c(C(=O)NCCNC(=O)c2ccco2)cc2c(=O)n3ccccc3nc21,inhibition,"Concentration 50.0 uM, Number of replicates 2.0, Standard deviation 1.378 %",-4.47%
C#Cc1cccc(NC(=O)CN(C)c2ncnc3[nH]ccc23)c1,inhibition,"Concentration 50.0 uM, Number of replicates 2.0, Standard deviation 4.462 %",4.4%
Clc1cnc(N2CCN(c3ncnc4[nH]ccc34)CC2)c(Cl)c1,inhibition,"Concentration 50.0 uM, Number of replicates 2.0, Standard deviation 0.674 %",-2%
same,inhibition,"Concentration 100.0 uM, Number of replicates 2.0, Standard deviation 2.989 %",-6.57%
COc1cccc2cc(CNc3cnc4[nH]ncc4c3)oc12,inhibition,"Concentration 50.0 uM, Number of replicates 2.0, Standard deviation 5.215 %",-4.29%
CC(C)c1c[nH]nc1NC(=O)c1ccc(NC(=O)Nc2ccccc2)cc1,inhibition,"Concentration 49.75 uM, Number of replicates 2.0, Standard deviation 3.059 %",6.99%
same,inhibition,"Concentration 99.5 uM, Number of replicates 2.0, Standard deviation 3.555 %",8.5%
